What all share (type): in vivo
The test system of one experiment is AGGRE. Description: field trial, herbicidal activity against AGGRE. To be noted: 2 to 3 repetitions, highest efficacy of three assessment days, g of a.i./ha: Ex. A.1 20, Metazachlor 1000, combination 20 + 1000. Here is the method: (§1) The reported results originate from field trials carried out in 2 to 3 repetitions. The weed grasses or crops are sown. The activities are assessed on three days; what is reported are the highest efficacies.

The test system of another experiment is BROSTE. Nature of the experiment: field trial, herbicidal activity against BROSTE. To be noted: 2 to 3 repetitions, highest efficacy of three assessment days, g of a.i./ha: Ex. A.1 20, Metazachlor 1000, combination 20 + 1000. The procedure:
as §1

For a further experiment, the system named is ALOMY. Nature of the experiment: field trial, herbicidal activity against ALOMY. To be noted: 2 to 3 repetitions, highest efficacy of three assessment days, g of a.i./ha: Ex. A.1 20, Metazachlor 1000, combination 20 + 1000. Here is the method:
as §1

In the next experiment the test system is TRZAS. Nature of the experiment: field trial, herbicidal activity against TRZAS. To be noted: 2 to 3 repetitions, highest efficacy of three assessment days, g of a.i./ha: Ex. A.5 20, Glufosinate 400, combination 20 + 400. The procedure: as §1
In another experiment the test system is PESGL. Description: field trial, herbicidal activity against PESGL. The note with it: 2 to 3 repetitions, highest efficacy of three assessment days, g of a.i./ha: Ex. A.5 20, Glufosinate 400, combination 20 + 400. Here is the method:
as §1

`Cc1cccc(C)c1N(Cn1cccn1)C(=O)CCl` [Metazachlor (B 3.20), 2-chloro-N-(2,6-dimethylphenyl)-N-(1H-pyrazol-1-ylmethyl)acetamide]: the “% Activity AGGRE” value in the experiment with AGGRE is on record as 10%. Moreover, the “% Activity BROSTE” value in the experiment with BROSTE is on record as 45%. The “% Activity ALOMY” value in the experiment with ALOMY was determined as 28%.
Turning to `CCOC(=O)OC1=C(c2c(CC)cc(Cl)cc2OC)C(=O)NC12CCC(OC)CC2` (stereo not shown) [Ex. A.5], the “% Activity TRZAS” value in the experiment with TRZAS worked out at 69%. Further, in the experiment with PESGL, the “% Activity PESGL” value is on record as 70%.
Regarding `CCc1cc(Cl)cc(OC)c1C1=C(O)C2(CCC(OC)CC2)NC1=O` (stereo not shown) [Ex. A.1], in the experiment on AGGRE, the “% Activity AGGRE” value amounted to 60%. The “% Activity BROSTE” value with BROSTE was determined as 35%. Moreover, the “% Activity ALOMY” value in the experiment on ALOMY was found to be 42%.
As to `CP(=O)(O)CCC(N)C(=O)O` (racemic) [Glufosinate (B4.2), 4-[hydroxy(methyl)phosphinoyl]-DL-homoalanine], in the experiment with TRZAS, the “% Activity TRZAS” value turned out to be 20%. The “% Activity PESGL” value with PESGL is listed as 20%.

These data come from patent US20080167188A1, “Herbicide Combinations Comprising Special Ketoenoles” (priority 2004, published 2008).
